Common to all, as to test: NCI tumour cell line growth inhibition, 48 h
The test system of assay [1] is OVCAR-4 ovarian.
Assay [2] has as its system OVCAR-3 ovarian.
The test system of assay [3] is SW-620 colon.
Assay [4] deals with LOX IMVI melanoma.
In assay [5] the test system is A498 renal.
The test system of assay [6] is M14 melanoma.
Assay [7] relates to HOP-92 NSCLC.
For assay [8], the system named is UACC-257 melanoma.
The subject of assay [9] is SNB-75 CNS.
Assay [10] concerns MCF7 breast.
Assay [11] relates to SF-539 CNS.
In assay [12] the test system is HS 578T breast.
Assay [13] concerns HT29 colon.
Assay [14] relates to HL-60(TB) leukemia.
Assay [15] has as its system A549 NSCLC.
For assay [16], the system named is KM12 colon.
Assay [17] concerns HCC-2998 colon.
For assay [18], the system named is SK-OV-3 ovarian.

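Dose response: 5 concentrations. Exposure: 48 h. Format: 96-well plates. Endpoint: linear interpolation; highest concentration if not reached. The concentration for full growth arrest is given as TGI.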 Where only a bound is given, the exact number is not on record here.

`Clc1c2ccccc2nc2c1[nH]c1ccccc12`: the TGI in [1], in assay [2], in [3], in assay [4], in [5] and in [6] was more than 100 µM throughout. The TGI in assay [7], in [8], in [9], in assay [10], in assay [11] and in assay [12] was more than 100 µM each time. The TGI is 34.3 µM in assay [13]; 41.4 µM in assay [14]; more than 100 µM in assay [15]; 22.2 µM in [16]; more than 100 µM in [17].
As to `CC1(C)C2CCC(O)(C2)C1N` (stereo not given), the TGI in [1], in assay [2], in assay [3], in assay [4], in assay [5] and in assay [6] was more than 100 µM throughout. Moreover, the TGI in [7], in [8], in assay [9], in [10], in assay [11] and in assay [12] was more than 100 µM in each case. Besides, the TGI in assay [18] is more than 100 µM; in assay [13] it was more than 100 µM; in [14] it was more than 31.6 µM; in [15], more than 100 µM; in [16], more than 100 µM; in assay [17] it was more than 100 µM.
For `O=C(N/N=C/C=C/c1ccc([N+](=O)[O-])o1)c1ccc(C(=O)N/N=C/C=C/c2ccc([N+](=O)[O-])o2)cc1`, the TGI is more than 100 µM in assay [1]; more than 100 µM in assay [2]; 98.5 µM in [3]; more than 75.8 µM in [4]; more than 100 µM in assay [5]; 49.7 µM in assay [6]. Also, the TGI was more than 100 µM in [7]; more than 30 µM in assay [8]; more than 100 µM in [9]; more than 100 µM in assay [10]; 22.3 µM in [11]; more than 100 µM in assay [12]. For the same molecule, the TGI is more than 100 µM in assay [18]; more than 100 µM in [13]; more than 65.2 µM in assay [14]; more than 100 µM in assay [15]; more than 100 µM in assay [16]; more than 28.5 µM in [17].
Regarding `C#CC1NC(=O)C1N(CC)CC` (stereo not given), the TGI in assay [1], in [2], in [3], in assay [4], in assay [5] and in assay [6] was more than 100 µM each time. In addition, the TGI in assay [7], in [8], in assay [9], in assay [10], in assay [11] and in assay [12] was more than 100 µM in each case. Besides, the TGI in assay [18], in [13], in [14], in assay [16] and in assay [17] was more than 100 µM throughout.
As for `Cc1ccc(N2C(N)=C(C#N)C(C#N)(C#N)C2c2ccccc2)cc1` (stereo not given), the TGI worked out at 26.9 µM in assay [1]; 27.4 µM in [2]; 15.2 µM in assay [3]; 23.9 µM in assay [4]; 35.7 µM in assay [5]; 30.5 µM in assay [6]. Further, the TGI in [7] is 21.8 µM; in [8] it was 30.4 µM; in assay [9], 28 µM; in assay [10], 18.8 µM; in [11], 29.2 µM; in [12], 76.7 µM. Further, the TGI in [18] is 47.6 µM; in assay [13], 13.9 µM; in assay [14], 6.15 µM; in [15] it was 38.2 µM; in [16], 33.6 µM; in [17] it was 25.8 µM.
For the molecule `COc1cc2ccc1OCc1cccc(n1)COc1ccc(cc1OC)C=NCCNCCN=C2`, the TGI in assay [1], in assay [2], in [3], in [4], in [5] and in assay [6] was more than 100 µM throughout. Moreover, the TGI in assay [7], in assay [8], in [9], in [10], in [11] and in [12] was more than 100 µM in each case. The TGI in [18], in assay [13], in assay [14], in assay [15] and in assay [17] was more than 100 µM in each case.
Take `O=C(C/C=C/c1ccccc1)c1ccccc1`: the TGI in assay [2] is more than 100 µM; in [3] it was more than 100 µM; in [4], 30.3 µM; in assay [5], 36 µM; in [6], 32.2 µM; in assay [7], more than 100 µM. Besides, the TGI in assay [8] was 72.1 µM; in assay [9] it was 69.2 µM; in assay [10] it was 32.7 µM; in assay [11], 56.6 µM; in assay [12] it was 58.6 µM; in assay [18], more than 100 µM. The TGI in assay [13] stood at 65.5 µM; in assay [14], 66 µM; in assay [15], 26 µM; in assay [16] it was 25.6 µM; in assay [17], 33.4 µM.
Consider `O=c1oc2ccc3ccccc3c2cc1-c1nc2ccc([N+](=O)[O-])cc2o1`, for which the TGI in assay [1] was more than 100 µM; in [2] it was more than 100 µM; in assay [3], more than 100 µM; in assay [4], more than 91.3 µM; in assay [5] it was more than 88.4 µM; in [6], more than 75.3 µM. Further, the TGI in assay [7] is more than 91 µM; in [8], more than 100 µM; in assay [9], more than 100 µM; in assay [10], more than 31.4 µM; in assay [11], 26.3 µM; in assay [12], more than 100 µM. Also, the TGI in assay [18] was more than 100 µM; in assay [13], more than 100 µM; in [14], more than 100 µM; in assay [15] it was more than 79.1 µM; in assay [16], more than 100 µM; in assay [17], more than 100 µM.
